The IC50 is the concentration that gives 50% inhibition. The term Papp A→B denotes how fast a substance crosses the layer from the apical side. A low value points to slow passage. The Papp B→A is the apparent permeability from the basolateral to the apical side of a cell layer.

One data set relates to NFAT. Briefly: Cellular NFAT-reporter-gene assay (GloResponse NFAT-RE-luc2P HEK293). The conditions noted are these: Homo sapiens, HEK293, 16 h, read-out: NFAT-reporter-gene assay IC50. Type of data set: cell-based. An excerpt:
An antigen specific stimulation of the T-cell receptor causes the activation of transcription factors such as e.g. NFAT (nuclear factor of activated T cells). NFAT-activation is essential for the expression of interleukine-2 and therefore, for the proliferation of T-cells as part of the immune response. A stable NFAT-reporter-gene cell line enables the analysis of modulators of the NFAT-pathways and thus, the evaluation of the immunosuppressive effects of compounds.
The stably transfected reporter-gene cell line GloResponse NFAT-RE-luc2P HEK293 (promega Corp. USA) was cultivated in DMEM (10% FCS; 2 mM Glutamin; 200 μg/ml Hygromycin) and seeded on 96-well plates (200.000 cells/well). The compounds to be tested were either added to the cells in a 2-point-determination (5 μM and 10 μM) or an ICH-determination (concentration series 4.1 nM-1 μM). […] Immediately thereafter the cells were stimulated with 5 nM PMA and 2 μM ionomycin and incubated over 16 h (37° C.; cell incubator). This double stimulation simulates a T-cell receptor stimulation and causes a NFAT activation with subsequently expression of the luciferase-reporter-gene. The amount of luciferase was quantitatively determined after 16 h by measurement of the bioluminescence by Bright-Glo Luciferase-Assay-System (Promega Corp., USA). The averaged luciferase values of the vehicle treated (1% DMSO) and with PMA/ionomycin stimulated cells were used as positive control and reference value.

The next data set addresses calcineurin (Homo sapiens, UniProt P62937+P63098+Q08209). In words: Inhibition of the phosphatase activity of calcineurin (scintillation-proximity-assay, in presence of Cyp18).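 Further: calcineurin dephosphorylation of a ³³P-labelled RII phosphopeptide, captured on streptavidin-coated wells and read by scintillation counting, with uninhibited enzyme activity taken as 100%.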
The nature of data set [1]: Determination of cell permeability in PAMPA cell membranes (Parallel Artificial Membrane Permeability Assay). The following applies: 500 μM, Hepes buffer pH 7.4, 16 hours, room temperature. The data set is classed as in vitro ADME. As to the method:
After an incubation of 16 hours at room temperature in a liquid chamber the optical density of the solution after filtration has been measured in a range of 250 to 500 nm in steps of 10 nm each. The percentage “Flux” has been calculated from the integral of the graph between 250 and 500 nm and standardized on the optical density determined in the parallel reaction without artificial membrane.

Another data set in a line: in vitro. The following applies: human, Caco-2, pH 7.4.
For data set [2], the target named is recombinant human wild type Cyp18 (Cyp18 wt) (Homo sapiens, UniProt P62937). Briefly: biochemical.
Chain of recombinant human wild type Cyp18 (Cyp18 wt) (P62937 whole entry): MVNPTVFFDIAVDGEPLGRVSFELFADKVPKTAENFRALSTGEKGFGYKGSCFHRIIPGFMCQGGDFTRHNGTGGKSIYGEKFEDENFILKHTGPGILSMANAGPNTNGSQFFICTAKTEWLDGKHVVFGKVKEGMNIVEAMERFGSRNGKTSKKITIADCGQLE
Protocol: The determination was performed on a UV/Vis spectrometer at 10° C. cuvette temperature, whereby the device is operated at 390 nm in kinetic-mode (measurement buffer: 35 mM HEPES/NaOH pH 7.8 (AppliChem A1069)). 0.58 nM recombinant human wild type Cyp18 (Cyp18 wt), 2.33 nM bovine serum albumin (BSA) and 1 mg/ml chymotrypsin (Merck) solved in 35 mM HEPES/NaOH pH 7.8 as well as different concentration of each test substance, where appropriate, were in the cuvette. The reaction was started with a stock solution of Suc-Ala-Ala-Pro-Phe-4-nitroanilide (Bachem, 10 mg/ml DMSO) as substrate so that a final substrate concentration of 32 μM resulted. The extinction-time-curves were evaluated after expiry of the fast phase of the reaction i.e. after approximately 60 seconds according to a rate equation of a first-order reaction.

Protocol for calcineurin: The measurement was carried out by incubation of 10 μMol of the biotinylated phosphopeptide [sequence]pSer-Val-Ala-Ala-Glu (MW=2192.0) (RH-peptide) marked with ^33P in a sample buffer (40 mM Tris-HCl, pH 7.5, 100 mM NaCl, 6 mM MgCl2, 0.5 mM dithiothreitol, 1 mM. CaCl2, 0.1 mg/ml bovine serum albumin) in presence of 50 nM calmodulin and 1.32 nM calcineurin at 30° C. for 20 min in a 96 well micro titer plate (Costar, Bodenheim, Germany). The total volume of the assay/well was 100 μl. After this reaction time a 90 μl aliquot of the reaction mixture was transferred into a scintillation cavity coated with streptavidin and incubated for 20 min at 22° C. After a washing step the RII phosphopeptide-associated ^33P radioactivity was measured in a MicroBeta Top Counter (Wallac) and the enzyme activity was indicated as average value of three measurements±S.D. The uninhibited dephosphorylation activity has been set on 100%.

Consider `CC[C@@H]1NC(=O)[C@H]([C@H](O)[C@H](C)Cc2nc3cc(-c4nnn[nH]4)ccc3[nH]2)N(C)C(=O)[C@H](C(C)C)N(C)C(=O)[C@H](CC(C)C)N(C)C(=O)[C@H](CC(C)C)N(C)C(=O)[C@@H](C)NC(=O)[C@H](C)NC(=O)[C@H](CC(C)C)N(C)C(=O)[C@H](C(C)C)NC(=O)[C@H](CC(C)C)N(C)C(=O)CN(C)C1=O` [Compound 33], for which the half-maximal inhibitory concentration (IC50) in the data set with NFAT is over 10 µM. For the same molecule, the IC50 at calcineurin was over 10 µM. Besides, in data set [1], the “Cell permeability in PAMPA-cell membranes” value (from here on “Cell permeability”) is on record as 0.25 % flux. In the data set “in vitro”, this molecule had a Papp A→B at 2 h, 5 μM of under 0.15 ×10⁻⁶ cm/s and a Papp B→A at 2 h, 5 μM of under 0.15 ×10⁻⁶ cm/s.

Regarding `CC[C@@H]1NC(=O)[C@H]([C@H](O)[C@H](C)Cc2nc3ccc(C(=O)O)cc3n2C)N(C)C(=O)[C@H](C(C)C)N(C)C(=O)[C@H](CC(C)C)N(C)C(=O)[C@H](CC(C)C)N(C)C(=O)[C@@H](C)NC(=O)[C@H](C)NC(=O)[C@H](CC(C)C)N(C)C(=O)[C@H](C(C)C)NC(=O)[C@H](CC(C)C)N(C)C(=O)CN(C)C1=O` [Compound 37], the IC50 in the data set on NFAT was over 10 µM. Also, in data set [1], the “Cell permeability” value is recorded as 2 % flux. Further, the Papp A→B at 2 h, 5 μM in the data set “in vitro” is 0.1 ×10⁻⁶ cm/s.

As to `CC[C@@H]1NC(=O)[C@H]([C@H](O)[C@H](C)Cc2nc3cc(F)cc(C(=O)O)c3[nH]2)N(C)C(=O)[C@H](C(C)C)N(C)C(=O)[C@H](CC(C)C)N(C)C(=O)[C@H](CC(C)C)N(C)C(=O)[C@@H](C)NC(=O)[C@H](C)NC(=O)[C@H](CC(C)C)N(C)C(=O)[C@H](C(C)C)NC(=O)[C@H](CC(C)C)N(C)C(=O)CN(C)C1=O` [Compound 21], the results for the IC50 (in the data set with NFAT; on calcineurin; in data set [2]) were 5.3 µM, over 10 µM and 0.0222 µM, respectively.

Regarding `CC[C@@H]1NC(=O)[C@H]([C@H](O)[C@H](C)Cc2nc3cc(C(=O)O)c(C(=O)O)cc3[nH]2)N(C)C(=O)[C@H](C(C)C)N(C)C(=O)[C@H](CC(C)C)N(C)C(=O)[C@H](CC(C)C)N(C)C(=O)[C@@H](C)NC(=O)[C@H](C)NC(=O)[C@H](CC(C)C)N(C)C(=O)[C@H](C(C)C)NC(=O)[C@H](CC(C)C)N(C)C(=O)CN(C)C1=O` [Compound 31], the values for the IC50 (in the data set with NFAT; in data set [2]) were over 10 µM and 0.0399 µM, respectively. Further, the “Cell permeability” value in data set [1] came out at 0.2 % flux. In the data set “in vitro”, this molecule gave a Papp A→B at 2 h, 5 μM of under 0.15 ×10⁻⁶ cm/s. Moreover, the Papp B→A at 2 h, 5 μM in “in vitro” is under 0.18 ×10⁻⁶ cm/s.

Regarding `CC[C@@H]1NC(=O)[C@H]([C@H](O)[C@H](C)Cc2nc3cc(/C=C/C(=O)O)ccc3[nH]2)N(C)C(=O)[C@H](C(C)C)N(C)C(=O)[C@H](CC(C)C)N(C)C(=O)[C@H](CC(C)C)N(C)C(=O)[C@@H](C)NC(=O)[C@H](C)NC(=O)[C@H](CC(C)C)N(C)C(=O)[C@H](C(C)C)NC(=O)[C@H](CC(C)C)N(C)C(=O)CN(C)C1=O` [Compound 15], the IC50 was over 10 µM in the data set with NFAT, over 10 µM at calcineurin and 0.0048 µM in data set [2].

`CC[C@@H]1NC(=O)[C@H]([C@H](O)[C@H](C)Cc2nc3cc(N4CCN(C)CC4)ccc3[nH]2)N(C)C(=O)[C@H](C(C)C)N(C)C(=O)[C@H](CC(C)C)N(C)C(=O)[C@H](CC(C)C)N(C)C(=O)[C@@H](C)NC(=O)[C@H](C)NC(=O)[C@H](CC(C)C)N(C)C(=O)[C@H](C(C)C)NC(=O)[C@H](CC(C)C)N(C)C(=O)CN(C)C1=O` [Compound 41]: the figures for the IC50 (with NFAT; at calcineurin; in data set [2]) were over 10 µM, over 10 µM and 0.003 µM, respectively.

Turning to `CC[C@@H]1NC(=O)[C@H]([C@H](O)[C@H](C)Cc2nc3cc(NC(=O)C(F)(F)F)ccc3[nH]2)N(C)C(=O)[C@H](C(C)C)N(C)C(=O)[C@H](CC(C)C)N(C)C(=O)[C@H](CC(C)C)N(C)C(=O)[C@@H](C)NC(=O)[C@H](C)NC(=O)[C@H](CC(C)C)N(C)C(=O)[C@H](C(C)C)NC(=O)[C@H](CC(C)C)N(C)C(=O)CN(C)C1=O` [Compound 38], the results for the IC50 (with NFAT; at calcineurin; in data set [2]) were 3.8 µM, 3.34 µM and 0.0143 µM, respectively.

For `CC[C@@H]1NC(=O)[C@H]([C@H](O)[C@H](C)Cc2nc3cccc(C(=O)OC)c3[nH]2)N(C)C(=O)[C@H](C(C)C)N(C)C(=O)[C@H](CC(C)C)N(C)C(=O)[C@H](CC(C)C)N(C)C(=O)[C@@H](C)NC(=O)[C@H](C)NC(=O)[C@H](CC(C)C)N(C)C(=O)[C@H](C(C)C)NC(=O)[C@H](CC(C)C)N(C)C(=O)CN(C)C1=O` [Compound 29], the values for the IC50 (in the data set on NFAT; on calcineurin; in data set [2]) were 10 µM, over 10 µM and 0.0295 µM, respectively.

With `CCC(CC)COC(=O)c1ccc2[nH]c(C[C@@H](C)[C@@H](O)[C@H]3C(=O)N[C@@H](CC)C(=O)N(C)CC(=O)N(C)[C@@H](CC(C)C)C(=O)N[C@@H](C(C)C)C(=O)N(C)[C@@H](CC(C)C)C(=O)N[C@@H](C)C(=O)N[C@H](C)C(=O)N(C)[C@@H](CC(C)C)C(=O)N(C)[C@@H](CC(C)C)C(=O)N(C)[C@@H](C(C)C)C(=O)N3C)nc2c1` [Compound 10], the IC50 in the data set with NFAT is over 10 µM; on calcineurin, 6.9 µM; in data set [2], 0.0115 µM.

`CC[C@@H]1NC(=O)[C@H]([C@H](O)[C@H](C)Cc2nc3cc(C(=O)OC)c(C(=O)OC)cc3[nH]2)N(C)C(=O)[C@H](C(C)C)N(C)C(=O)[C@H](CC(C)C)N(C)C(=O)[C@H](CC(C)C)N(C)C(=O)[C@@H](C)NC(=O)[C@H](C)NC(=O)[C@H](CC(C)C)N(C)C(=O)[C@H](C(C)C)NC(=O)[C@H](CC(C)C)N(C)C(=O)CN(C)C1=O` [Compound 32]: the IC50 is over 10 µM in the data set with NFAT, over 10 µM on calcineurin and 0.0249 µM in data set [2].

As to `CC[C@@H]1NC(=O)[C@H]([C@H](O)[C@H](C)Cc2nc3cc(NS(=O)(=O)C(F)(F)F)ccc3[nH]2)N(C)C(=O)[C@H](C(C)C)N(C)C(=O)[C@H](CC(C)C)N(C)C(=O)[C@H](CC(C)C)N(C)C(=O)[C@@H](C)NC(=O)[C@H](C)NC(=O)[C@H](CC(C)C)N(C)C(=O)[C@H](C(C)C)NC(=O)[C@H](CC(C)C)N(C)C(=O)CN(C)C1=O` [Compound 47], the IC50 in the data set on NFAT is over 10 µM; on calcineurin, over 10 µM; in data set [2], 0.0132 µM.

Take `CC[C@@H]1NC(=O)[C@H]([C@H](O)[C@H](C)Cc2nc3cc(N)c(N)cc3[nH]2)N(C)C(=O)[C@H](C(C)C)N(C)C(=O)[C@H](CC(C)C)N(C)C(=O)[C@H](CC(C)C)N(C)C(=O)[C@@H](C)NC(=O)[C@H](C)NC(=O)[C@H](CC(C)C)N(C)C(=O)[C@H](C(C)C)NC(=O)[C@H](CC(C)C)N(C)C(=O)CN(C)C1=O` [Compound 40]: the results for the IC50 (in the data set with NFAT; on calcineurin; in data set [2]) were over 10 µM, 8 µM and 0.0055 µM, respectively.

In the case of `CC[C@@H]1NC(=O)[C@H]([C@H](O)[C@H](C)Cc2nc3cc(C(N)=O)ccc3[nH]2)N(C)C(=O)[C@H](C(C)C)N(C)C(=O)[C@H](CC(C)C)N(C)C(=O)[C@H](CC(C)C)N(C)C(=O)[C@@H](C)NC(=O)[C@H](C)NC(=O)[C@H](CC(C)C)N(C)C(=O)[C@H](C(C)C)NC(=O)[C@H](CC(C)C)N(C)C(=O)CN(C)C1=O` [Compound 23], the IC50 in the data set with NFAT is over 10 µM; at calcineurin, over 10 µM; in data set [2] it was 0.0038 µM. The Papp A→B at 2 h, 5 μM in the data set “in vitro” stood at 0.3 ×10⁻⁶ cm/s. Further, the Papp B→A at 2 h, 5 μM in “in vitro” worked out at 0.6 ×10⁻⁶ cm/s.

On to `CC[C@@H]1NC(=O)[C@H]([C@H](O)[C@H](C)Cc2nc3nc(O)nc(O)c3[nH]2)N(C)C(=O)[C@H](C(C)C)N(C)C(=O)[C@H](CC(C)C)N(C)C(=O)[C@H](CC(C)C)N(C)C(=O)[C@@H](C)NC(=O)[C@H](C)NC(=O)[C@H](CC(C)C)N(C)C(=O)[C@H](C(C)C)NC(=O)[C@H](CC(C)C)N(C)C(=O)CN(C)C1=O` [Compound 24], for which the IC50 in the data set with NFAT was over 10 µM; on calcineurin, over 10 µM; in data set [2], 0.0062 µM.

As for `CC[C@@H]1NC(=O)[C@H]([C@H](O)[C@H](C)Cc2nc3cccc(C(=O)O)c3[nH]2)N(C)C(=O)[C@H](C(C)C)N(C)C(=O)[C@H](CC(C)C)N(C)C(=O)[C@H](CC(C)C)N(C)C(=O)[C@@H](C)NC(=O)[C@H](C)NC(=O)[C@H](CC(C)C)N(C)C(=O)[C@H](C(C)C)NC(=O)[C@H](CC(C)C)N(C)C(=O)CN(C)C1=O` [Compound 28], the IC50 with NFAT is over 10 µM. The “Cell permeability” value in data set [1] is reported as 3.3 % flux. In addition, in “in vitro”, the Papp A→B at 2 h, 5 μM was under 0.4 ×10⁻⁶ cm/s and the Papp B→A at 2 h, 5 μM stood at 0.3 ×10⁻⁶ cm/s.

As to `CC[C@@H]1NC(=O)[C@H]([C@H](O)[C@H](C)Cc2nc3cc(-c4ccc(N)c(N)c4)ccc3[nH]2)N(C)C(=O)[C@H](C(C)C)N(C)C(=O)[C@H](CC(C)C)N(C)C(=O)[C@H](CC(C)C)N(C)C(=O)[C@@H](C)NC(=O)[C@H](C)NC(=O)[C@H](CC(C)C)N(C)C(=O)[C@H](C(C)C)NC(=O)[C@H](CC(C)C)N(C)C(=O)CN(C)C1=O` [Compound 39], the IC50 in the data set with NFAT is 10 µM; on calcineurin, over 10 µM; in data set [2], 0.0061 µM.

The values above are taken from patent US9453051B2, “Cyclosporin derivatives” (priority 2011, dated 2016).
